Measurements reported in US20240417387A1, “SULFONYLPIPERAZINYL COMPOUNDS FOR TREATMENT OF BACTERIAL INFECTIONS” (Hoffmann-La Roche Inc., priority 2021, published 2024).
In brackets after ≈: the same amount, converted by molar mass. Where two headings read alike, the source gives them in different places.

Experiments:
[1] = system: Escherichia coli BW 25113; experiment: Minimal Inhibitory Concentration (MIC) broth dilution assay, E. coli BW 25113; format: cell-based; conditions: CAMHB; for MIC: Escherichia coli, BW25113, 20 hours at 35° C., read-out: MIC E. coli K-12 BW 25113
Experimental: (§1) The antibacterial activity of molecules was evaluated against the commonly used quality control strain Escherichia coli BW 25113, Escherichia coli ATCC 25922 and the rifampin-resistant mutant strain Klebsiella pneumonia ATCC 43816. Escherichia co/i BW 25113 was obtained from the Coli Genetic Stock Center (CGSC) (strain 7636). Both Escherichia coli ATCC 25922 and Klebsiella pneumonia ATCC 43816 were originally derived from human clinical samples and are available from ATCC (American Type Culture Collection). The in vitro potency of compounds to inhibit Escherichia coli (BW 25113, ATCC 25922) and Klebsiella pneumonia (ATCC 43816) growth was assessed by the MIC (Minimal Inhibitory Concentration) broth dilution method. Specifically compound dilutions were prepared from 10 mM DMSO stock solutions as follows: i) serial 2-fold dilution in 20 μL DMSO were prepared in a master plate (Greiner, Cat No: 651201), ii) 180 μL sterile distilled water was added to each aliquot and iii) 10 μL diluted compounds were transferred into a new assay plate (Costar, 3599).
(§2) Vials of each test microorganisms were maintained frozen in the vapor phase of a liquid nitrogen freezer. Single-use frozen vials of the three strains Escherichia coli BW 25113, Escherichia coli ATCC 25922 (KWTKSTTK, 0335K) and Klebsiella pneumonia ATCC 43816, with predetermined CFU/mL, were taken out from the freezer, thawed at room temperature, and diluted in Cation-Adjusted Mueller Hinton Broth (CAMVIHB) to achieve a final inoculum of 5×10^5 CFU/mL. 90 μL bacteria containing broth was dispensed to the assay plate containing the pre-dispensed compound dilutions and mixed by pipetting 5 times.
(§3) Then the assay plates were incubated for 20 hours at 35° C. in ambient air. Following incubation, the MIC […], the lowest concentration of drug that inhibits visible growth of the microorganism was read with the help of a magnification mirror and recorded.

[2] = system: Escherichia coli ATCC 25922; experiment: Minimal Inhibitory Concentration (MIC) broth dilution assay, E. coli ATCC 25922; format: cell-based; conditions: for MIC: Escherichia coli
Experimental: as §1, §2, §3

[3] = system: Klebsiella pneumonia ATCC 43816; experiment: Minimal Inhibitory Concentration (MIC) broth dilution assay, K. pneumonia ATCC 43816; format: cell-based; conditions: CAMHB; for MIC: Klebsiella pneumoniae, ATCC43816, 20 hours at 35° C., read-out: MIC K. p ATCC 43816
Experimental: as §1, §2, §3

[4] = biological target: Escherichia coli UDP-2,3-diacylglucosamine hydrolase (LpxH) (Escherichia coli (strain K12), UniProt P43341); experiment: Enzymatic IC50 assay of Escherichia coli LpxH (UMP/CMP-Glo luminescence); format: biochemical; conditions: Enzymatic IC50 against Escherichia coli LpxH; read-out: IC50 (converted)
Experimental: The inhibitory potency of compounds of Escherichia coli UDP-2,3-diacylglucosamine hydrolase (LpxH) was determined in an enzymatic assay. UDP-2,3-diacylglucosamine (UDP-DAG) was purified from the Caulobacter crescentus LpxI D225A mutant protein that contained a tightly bound UDP-DAG molecule. The enzyme was diluted using assay buffer containing 50 mM NaCl, 20 mM Tris-HCl pH7.5, 2.5 mM MnCl2, 0.01% Triton X-100.1 mg/mL BSA, and the final concentration is 2 nM. The compounds were diluted by Agilent liquid handler Bravo, the compound's serial dilution dose ranges from 100 μM to 1.7 nM. Then the enzyme and compounds mixture were incubated at room temperature for 10 mins. The enzymatic assay was started by adding UDP-DAG (FAC is 5 μM) and incubated for 20 mins at room temperature. The plate was then heated to 95° C. for 15 mins on a water batch to stop the reaction. The hydrolysis of UDP-DAG by LpxH yielded 2,3-diacylglucosamine 1-phosphate (lipid X) and UMP, which was converted to ATP and quantified by the luciferase reaction using the UMP/CMP-Glo™ Glycosyltransferase Assay kit from Promega. The compound's inhibitory effect of LpxH is determined by measuring the light change using a luminometer (Envision).

[5] = Human microsome stability assay; format: in vitro ADME
Experimental: The human microsomal stability assay is used for early assessment of metabolic stability of a test compound in human liver microsomes.
Human liver microsomes (Cat.NO.: 452117, Corning, USA) were preincubated with test compound for 10 minutes at 37° C. in 100 mM potassium phosphate buffer, pH 7.4. The reactions were initiated by adding NADPH regenerating system. The final incubation mixtures contained 1 µM test compound, 0.5 mg/mL liver microsomal protein, 1 mM MgCl2, 1 mM NADP, 1 unit/mL isocitric dehydrogenase and 6 mM isocitric acid in 100 mM potassium phosphate buffer, pH 7.4. After incubation times of 0, 3, 6, 9, 15 and 30 minutes at 37° C., 300 μL of cold acetonitrile (including internal standard) was added to 100 μL incubation mixture to terminate the reaction. Following precipitation and centrifugation, the amount of compound remaining in the samples were determined by LC-MS/MS. Controls of no NADPH regenerating system at zero and 30 minutes were also prepared and analyzed. […] (Human microsome clearance: <7 mL/min/kg: low; 7-16.2 mL/min/kg: medium; >16.2 mL/min/kg: high)

[6] = ATCC25922, 20 h, read-out: MIC E. coli ATCC 25922
[7] = ATCC25922, read-out: MIC E. coli ATCC 25922, broth dilution, 20 hours at 35° C., CAMHB, read-out: MIC E. coli K-12 ATCC 25922
[8] = human liver microsomes 0.5 mg/mL, 37° C., pH 7.4, NADPH regenerating system

Escherichia coli UDP-2,3-diacylglucosamine hydrolase (LpxH), sequence (P43341 whole entry): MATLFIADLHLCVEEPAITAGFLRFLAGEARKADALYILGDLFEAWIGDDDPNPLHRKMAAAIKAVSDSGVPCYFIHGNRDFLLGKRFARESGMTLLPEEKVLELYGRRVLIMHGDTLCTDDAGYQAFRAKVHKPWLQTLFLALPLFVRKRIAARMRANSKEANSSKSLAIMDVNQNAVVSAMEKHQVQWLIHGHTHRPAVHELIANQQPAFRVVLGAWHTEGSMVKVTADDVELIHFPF

Compound	MIC [1] [µg/mL]	MIC [2, 6] [µg/mL]	MIC [3] [µg/mL]	IC50 [4] [nM]	MIC [2, 7] [µg/mL]	other results
COC(=O)[C@H]1CC[C@H](C(F)(F)c2cc(Cl)nc(N3CCN(S(=O)(=O)c4ccc(N5CC(N)CC5=O)cc4)CC3)c2)CC1 (stereo partly drawn) [Example 001, Trans-methyl 4-[[2-[4-[4-(4-amino-2-oxo-pyrrolidin-1-yl)phenyl]sulfonylpiperazin-1-yl]-6-chloro-4-pyridyl]-difluoro-methyl]cyclohexanecarboxylate]	0.49 (≈ 0.783 µM)	0.98 (≈ 1.57 µM)	0.98 (≈ 1.57 µM)	3.19		
N[C@@H]1CC(=O)N(c2ccc(S(=O)(=O)N3CCN(c4cc(C(F)(F)c5cnc(C(=O)NCCN6CCOCC6)cn5)cc(Cl)n4)CC3)cc2)C1 [Example 025, 5-[[2-chloro-6-[4-[4-[(4R)-4-amino-2-oxo-pyrrolidin-1-yl]phenyl]sulfonylpiperazin-1-yl]-4-pyridyl]-difluoro-methyl]-N-(2-morpholinoethyl)pyrazine-2-carboxamide]				< 2.78		
NCCNCCNC(=O)c1ccc(C(F)(F)c2cc(Cl)nc(N3CCN(S(=O)(=O)c4ccc(N5C[C@H](N)CC5=O)cc4)CC3)c2)nc1 [Example 028, N-[2-(2-aminoethylamino)ethyl]-6-[[2-chloro-6-[4-[4-[(4R)-4-amino-2-oxo-pyrrolidin-1-yl]phenyl]sulfonylpiperazin-1-yl]-4-pyridyl]-difluoro-methyl]pyridine-3-carboxamide]	1.6 (≈ 2.31 µM)		1.6 (≈ 2.31 µM)	20.2	1.6 (≈ 2.31 µM)	
N[C@@H]1CC(=O)N(c2ccc(S(=O)(=O)N3CCN(c4cc(C(F)(F)[C@H]5CC[C@@H](C(=O)NCCCO)CC5)cc(Cl)n4)CC3)cc2)C1 [Example 032]	3.3 (≈ 4.93 µM)	2.2 (≈ 3.29 µM)	2.2 (≈ 3.29 µM)	< 2.99		
NCC(=O)NNC(=O)[C@H]1CC[C@H](C(F)(F)c2cc(Cl)nc(N3CCN(S(=O)(=O)c4ccc(N5C[C@H](N)CC5=O)cc4)CC3)c2)CC1 [Example 050, Trans-N′-(2-aminoacetyl)-4-[[2-chloro-6-[4-[4-[(4R)-4-amino-2-oxo-pyrrolidin-1-yl]phenyl]sulfonylpiperazin-1-yl]-4-pyridyl]-difluoro-methyl]cyclohexanecarbohydrazide]	2.1 (≈ 3.07 µM)		1.1 (≈ 1.61 µM)	2.93	1.1 (≈ 1.61 µM)	
Cc1cc(C(F)(F)[C@H]2CC[C@H](C(=O)NCCCN)CC2)nc(N2CCN(S(=O)(=O)c3ccc(N4C[C@H](N)CC4=O)cc3)CC2)n1 [Example 054, Trans-N-(3-aminopropyl)-4-[difluoro-[6-methyl-2-[4-[4-[(4R)-4-amino-2-oxo-pyrrolidin-1-yl]phenyl]sulfonylpiperazin-1-yl]pyrimidin-4-yl]methyl]cyclohexanecarboxamide]				37		
NC(=O)CNC(=O)[C@H]1CC[C@@H](C(F)(F)c2cc(Cl)nc(N3CCN(S(=O)(=O)c4ccc(N5C[C@H](N)CC5=O)cc4)CC3)c2)CC1 [Example 063, Cis-N-(2-amino-2-oxo-ethyl)-4-[[2-chloro-6-[4-[4-[(4R)-4-amino-2-oxo-pyrrolidin-1-yl]phenyl]sulfonylpiperazin-1-y1]-4-pyridyl]-difluoro-methyl]cyclohexanecarboxamide]				5.99		
NCC(N)CNC(=O)[C@H]1CC[C@H](C(F)(F)c2cc(Cl)nc(N3CCN(S(=O)(=O)c4ccc(N5C[C@H](N)CC5=O)cc4)CC3)c2)CC1 (stereo partly drawn) [Example 077, Trans-4-[[2-chloro-6-[4-[4-[(4R)-4-amino-2-oxo-pyrrolidin-1-yl]phenyl]sulfonylpiperazin-1-yl]-4-pyridyl]-difluoro-methyl]-N-(2,3-diaminopropyl)cyclohexanecarboxamide]	2.2 (≈ 3.22 µM)		2.2 (≈ 3.22 µM)	2.93	2.2 (≈ 3.22 µM)	
CNC(=O)c1ccc(C(F)(F)c2cc(Cl)nc(N3CCN(S(=O)(=O)c4ccc(N5CC(NCCCN)CC5=O)cc4)CC3)c2)cc1 (stereo not shown) [Example 078, 4-[[2-[4-[4-[4-(3-Aminopropylamino)-2-oxo-pyrrolidin-1-yl]phenyl]sulfonylpiperazin-1-yl]-6-chloro-4-pyridyl]-difluoro-methyl]-N-methyl-benzamide]	1.4 (≈ 2.07 µM)		2.1 (≈ 3.11 µM)	5.92	2.8 (≈ 4.14 µM)	
NCC(=O)N[C@H]1CC[C@@H](NC(=O)[C@H]2CC[C@H](C(F)(F)c3cc(Cl)nc(N4CCN(S(=O)(=O)c5ccc(N6C[C@H](N)CC6=O)cc5)CC4)c3)CC2)C1 [Example 079, Trans-N-[(1R,3S)-3-[(2-aminoacetyl)amino]cyclopentyl]-4-[[2-[4-[4-[(4R)-4-amino-2-oxo-pyrrolidin-1-yl]phenyl]sulfonylpiperazin-1-yl]-6-chloro-4-pyridyl]-difluoro-methyl]cyclohexanecarboxamide]	3.4 (≈ 4.53 µM)	3.4 (≈ 4.53 µM)	0.85 (≈ 1.13 µM)			Clearance of Human microsome [5, 8]: 11.16 mL/min/kg
N[C@@H]1CC(=O)N(c2ccc(S(=O)(=O)N3CCN(c4cc(C(F)(F)[C@H]5CC[C@H](C(=O)N[C@H]6CCC(N7C[C@H](N)C[C@H](N)C7)C6)CC5)cc(Cl)n4)CC3)cc2)C1 (stereo partly drawn) [Example 081, Trans-4-[[2-chloro-6-[4-[4-[(4R)-4-amino-2-oxo-pyrrolidin-1-yl]phenyl]sulfonylpiperazin-1-yl]-4-pyridyl]-difluoro-methyl]-N-[(1S)-3-[cis-3,5-diamino-1-piperidyl]cyclopentyl]cyclohexanecarboxamide]	0.65 (≈ 0.82 µM)	0.65 (≈ 0.82 µM)	0.65 (≈ 0.82 µM)			Clearance of Human microsome [5, 8]: 6.71 mL/min/kg
C[N+](C)(CCCN)CCCNC(=O)[C@H]1CC[C@H](C(F)(F)c2cc(Cl)nc(N3CCN(S(=O)(=O)c4ccc(N5C[C@H](N)CC5=O)cc4)CC3)c2)CC1 [Example 084, Trans-3-[[4-[[2-[4-[4-[(4R)-4-amino-2-oxo-pyrrolidin-1-yl]phenyl]sulfonylpiperazin-1-yl]-6-chloro-4-pyridyl]-difluoro-methyl]cyclohexanecarbonyl]amino]propyl-(3-aminopropyl)-dimethyl-ammonium]	0.48	0.48	0.81			Clearance of Human microsome [5, 8]: 9.7 mL/min/kg
Trans-N-[(1R,3S)-3-aminocyclopentyl]-4-[2-[4-[4-[(4R)-4-amino-2-oxo-pyrrolidin-1-yl]phenyl]sulfonylpiperazin-1-yl]-6-chloro-4-pyridyl]-difluoro-methyl]cyclohexanecarboxamide [Example 066]						MIC E. coli K-12 BW 25113 ([1]; 20 hours at 35° C.): 1.3 µg/mL; MIC E. coli K-12 ATCC 25922 ([2]; broth dilution, 20 hours at 35° C., CAMHB): 0.63 µg/mL; Clearance of Human microsome ([5]; human, microsomes, pH 7.4): 6.15 mL/min/kg; MIC K. p ATCC 43816 ([3]; 20 hours at 35° C.): 0.59 µg/mL
